According to ChEMBL document CHEMBL5247604, “Discovery of novel hybrids containing clioquinol-1-benzyl-1,2,3,6-tetrahydropyridine as multi-target-directed ligands (MTDLs) against Alzheimer's disease” (Eur J Med Chem, 2022):
pIC50: −log10 of the molar value. Calls of active or inactive are those of the source. The calls are words filed in the database; no cut-off is given here.

Experiments:
[1] = Metal chelating activity assessed as Fe2+-compound complex formation by measuring red shift in presence of FeSO4 at 40 uM incubated for 30 mins by UV-Visible spectrophotometry
[2] = Acute toxicity in ICR mouse assessed as altered water consumption at 1200 mg/kg, po and measured after 14 days; assay type: organism-based; conditions: in vivo, 336 h, time 14 day
SH-SY5Y [3] = experiment: Antialzheimer activity in human SH-SY5Y cells assessed as inhibition of GA-induced tau hyperphosphorylation at Ser396 residue incubated for 24 hrs by ELISA; assay type: functional, cell-based
SH-SY5Y [4] = experiment: Cytotoxicity against human SH-SY5Y cells assessed as reduction in cell viability upto 50 uM incubated for 24 hrs by MTT assay; assay type: toxicity, cell-based
SH-SY5Y [5] = experiment: Antioxidant activity against okadaic acid-induced ROS generation in human SH-SY5Y cells assessed as reduction in DCF fluorescence intensity pretreated for 24 hrs followed by okadaic acid addition for 24 hrs by DCFH-DA dye based fluorescence analysis; assay type: functional, cell-based
SH-SY5Y [6] = experiment: Antioxidant activity against okadaic acid-induced ROS generation in human SH-SY5Y cells assessed as reduction in DCF fluorescence intensity at 1 to 10 uM pretreated for 24 hrs followed by okadaic acid addition for 24 hrs by DCFH-DA dye based fluorescence analysis; assay type: functional, cell-based; conditions: dose 1-10 µM
Acetylcholinesterase [7] = target: Acetylcholinesterase (Homo sapiens, UniProt P22303); experiment: Inhibition of AChE in human SH-SY5Ycells assessed as reduction AChE activity using acetylthiocholine as substrate incubated for 24 hrs by DTNB based Ellman's method; assay type: cell-based, SH-SY5Y
Chain of Acetylcholinesterase (Homo sapiens, UniProt P22303) (P22303 whole entry): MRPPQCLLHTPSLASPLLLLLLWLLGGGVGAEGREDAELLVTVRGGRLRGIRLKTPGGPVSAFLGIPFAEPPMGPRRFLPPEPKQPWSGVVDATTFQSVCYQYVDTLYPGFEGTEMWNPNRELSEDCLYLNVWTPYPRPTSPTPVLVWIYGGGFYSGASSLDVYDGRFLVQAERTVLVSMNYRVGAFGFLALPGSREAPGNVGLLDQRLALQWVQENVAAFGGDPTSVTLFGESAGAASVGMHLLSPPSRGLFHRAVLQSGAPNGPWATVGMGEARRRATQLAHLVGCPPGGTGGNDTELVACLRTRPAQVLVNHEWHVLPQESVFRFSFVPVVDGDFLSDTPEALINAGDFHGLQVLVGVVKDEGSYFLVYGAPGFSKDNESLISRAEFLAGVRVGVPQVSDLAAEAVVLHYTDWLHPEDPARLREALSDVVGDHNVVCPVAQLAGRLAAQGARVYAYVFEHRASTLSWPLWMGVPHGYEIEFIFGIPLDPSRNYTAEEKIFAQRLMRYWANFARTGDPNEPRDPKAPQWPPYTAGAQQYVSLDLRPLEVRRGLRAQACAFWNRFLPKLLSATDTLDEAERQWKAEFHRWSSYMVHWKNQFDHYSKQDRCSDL

[8] = Acute toxicity in ICR mouse assessed as abnormal behavior at 1200 mg/kg, po and measured after 24 hrs; assay type: organism-based; conditions: in vivo
[9] = Acute toxicity in ICR mouse assessed as abnormal behavior at 1200 mg/kg, po and measured after 14 days; assay type: organism-based; conditions: in vivo, 336 h, time 14 day
Acetylcholinesterase [10] = target: Acetylcholinesterase (Electrophorus electricus, UniProt O42275); experiment: Inhibition of electric eel AChE using acetylthiocholine iodide as substrate preincubated for 15 mins followed by substrate addition by Ellman's method
Chain of Acetylcholinesterase (Electrophorus electricus, UniProt O42275) (O42275 whole entry): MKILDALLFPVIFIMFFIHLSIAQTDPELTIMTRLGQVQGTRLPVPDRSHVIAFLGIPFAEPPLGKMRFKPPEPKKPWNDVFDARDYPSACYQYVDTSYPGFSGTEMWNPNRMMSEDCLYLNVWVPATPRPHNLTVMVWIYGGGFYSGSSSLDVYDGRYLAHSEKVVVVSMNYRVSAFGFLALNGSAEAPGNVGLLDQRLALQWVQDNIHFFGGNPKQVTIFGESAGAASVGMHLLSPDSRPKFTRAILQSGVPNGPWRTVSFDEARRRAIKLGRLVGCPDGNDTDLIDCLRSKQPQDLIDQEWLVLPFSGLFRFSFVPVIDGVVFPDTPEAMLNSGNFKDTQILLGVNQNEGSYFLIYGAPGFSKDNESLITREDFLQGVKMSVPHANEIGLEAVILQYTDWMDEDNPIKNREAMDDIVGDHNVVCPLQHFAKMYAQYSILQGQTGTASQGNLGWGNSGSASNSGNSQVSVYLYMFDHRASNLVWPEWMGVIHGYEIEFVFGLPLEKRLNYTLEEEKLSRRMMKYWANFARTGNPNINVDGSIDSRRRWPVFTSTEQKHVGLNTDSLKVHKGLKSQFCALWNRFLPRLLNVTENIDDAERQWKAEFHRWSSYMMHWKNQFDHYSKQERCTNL

SH-SY5Y [11] = experiment: Antialzheimer activity in human SH-SY5Y cells assessed as inhibition of GA-induced tau hyperphosphorylation at Ser199 residue incubated for 24 hrs by ELISA; assay type: functional, cell-based
[12] = Metal chelating activity assessed as Fe3+-compound complex formation by measuring red shift in presence of FeCl3 at 40 uM incubated for 30 mins by UV-Visible spectrophotometry
SH-SY5Y [13] = experiment: (§1) Neuroprotective activity in human SH-SY5Y cells assessed as inhibition of okadaic acid-induced mitochondrial membrane potential by measuring increase in red-to-green fluorescence intensity ratio at 1 to 10 uM pretreated for 24 hrs followed by okadaic acid addition for 24 hrs by JC-1 dye based fluorescence analysis; assay type: functional, cell-based; conditions: dose 1-10 µM
[14] = Acute toxicity in ICR mouse assessed as change in body weight at 1200 mg/kg, po and measured after 14 days; assay type: organism-based; conditions: in vivo, 336 h, time 14 day
[15] = Acute toxicity in ICR mouse assessed as abnormal behavior at 1200 mg/kg, po and measured after 4 hrs; assay type: organism-based; conditions: in vivo
Mus musculus [16] = experiment: Antialzheimer activity in scopolamine-induced cognitive impairment ICR mouse model assessed as time latency to reach target at 15 mg/kg,ip qd for 10 days followed by scopolmaine-stimulation measured on day 16 by Morris water maze test (Rvb= 71.89 +/- 25.59 sec); assay type: functional; conditions: time 10 day
[17] = target: T1, Amyloid-beta precursor protein (Homo sapiens, UniProt P05067); experiment: Inhibition of amyloid beta (1 to 42 ) (unknown origin) self aggregation incubated for 24 hr by Thioflavin T based fluorometric assay
T1 sequence (P05067 whole entry): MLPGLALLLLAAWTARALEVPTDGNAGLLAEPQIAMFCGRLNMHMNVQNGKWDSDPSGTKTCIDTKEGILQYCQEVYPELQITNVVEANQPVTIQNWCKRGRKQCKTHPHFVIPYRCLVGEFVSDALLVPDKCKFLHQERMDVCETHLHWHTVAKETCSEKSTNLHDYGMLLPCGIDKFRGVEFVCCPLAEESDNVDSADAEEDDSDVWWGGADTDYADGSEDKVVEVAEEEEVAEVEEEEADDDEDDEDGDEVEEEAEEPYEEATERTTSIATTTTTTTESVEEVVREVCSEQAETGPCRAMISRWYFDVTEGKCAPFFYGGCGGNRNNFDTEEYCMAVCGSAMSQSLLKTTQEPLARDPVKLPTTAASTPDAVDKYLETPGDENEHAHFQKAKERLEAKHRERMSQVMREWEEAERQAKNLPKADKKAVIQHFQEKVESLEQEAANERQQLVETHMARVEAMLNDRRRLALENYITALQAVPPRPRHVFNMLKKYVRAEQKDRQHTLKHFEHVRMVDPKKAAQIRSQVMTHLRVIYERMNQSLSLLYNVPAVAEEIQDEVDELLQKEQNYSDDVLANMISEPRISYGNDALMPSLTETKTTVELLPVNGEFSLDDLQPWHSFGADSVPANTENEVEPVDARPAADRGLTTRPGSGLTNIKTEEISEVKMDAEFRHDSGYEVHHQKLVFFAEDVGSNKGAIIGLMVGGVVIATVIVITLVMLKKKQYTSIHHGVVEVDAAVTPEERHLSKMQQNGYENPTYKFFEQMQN

[18] = Acute toxicity in ICR mouse assessed as mortality at 1200 mg/kg, po and measured after 14 days; assay type: organism-based; conditions: in vivo, 336 h, time 14 day
[19] = Acute toxicity in ICR mouse assessed as altered food consumption at 1200 mg/kg, po and measured after 14 days; assay type: organism-based; conditions: in vivo, 336 h, time 14 day
[20] = Acute toxicity in ICR mouse assessed as altered food consumption at 1200 mg/kg, po and measured after 24 hrs; assay type: organism-based; conditions: in vivo
Mus musculus [21] = experiment: Antialzheimer activity in human oligo-merized amyloid beta (1 to 42 residues)-induced cognitive impairment C57BL/6 mouse model assessed as increase duration in novel arm at 15 mg/kg,ip qd for 10 days by Y-maze test relative to control; assay type: functional, organism-based; conditions: time 10.0 day
Mus musculus [22] = experiment: Antialzheimer activity in human oligo-merized amyloid beta (1 to 42 residues)-induced cognitive impairment C57BL/6 mouse model assessed as decrease TNF-alpha level in cortex at 15 mg/kg,ip qd for 10 days by ELISA; assay type: functional, organism-based; conditions: time 10.0 day
SH-SY5Y [23] = experiment: as §1, with “ratio” for “ratio at 1 to 10 uM”; assay type: functional, cell-based
SH-SY5Y [24] = experiment: Antialzheimer activity in human SH-SY5Y cells assessed as inhibition of GA-induced tau hyperphosphorylation at Ser396 residue at 0.1 to 3 uM incubated for 24 hrs by ELISA; assay type: functional, cell-based; conditions: dose 0.1-3 µM
Mus musculus [25] = experiment: Antialzheimer activity in human oligo-merized amyloid beta (1 to 42 residues)-induced cognitive impairment C57BL/6 mouse model assessed as decrease IL-1beta level in cortex at 15 mg/kg,ip qd for 10 days by ELISA; assay type: functional, organism-based; conditions: time 10.0 day
[26] = Acute toxicity in ICR mouse assessed as altered water consumption at 1200 mg/kg, po and measured after 4 hrs; assay type: organism-based; conditions: in vivo
[27] = Acute toxicity in ICR mouse assessed as altered food consumption at 1200 mg/kg, po and measured after 4 hrs; assay type: organism-based; conditions: in vivo
[28] = target: T1, Amyloid-beta precursor protein; experiment: Inhibition of AChE induced HFIP-pretreated amyloid beta (1 to 42 ) (unknown origin) aggregation at 0.1 to 10 uM incubated for 24 hr by Thioflavin T based fluorometric assay; conditions: dose 0.1-10 µM
Mus musculus [29] = experiment: Antialzheimer activity in human oligo-merized amyloid beta (1 to 42 residues)-induced cognitive impairment C57BL/6 mouse model assessed as decrease in escape latency at 15 mg/kg,ip qd for 10 days by Morris water maze test relative to control; assay type: functional, organism-based; conditions: time 10.0 day
Mus musculus [30] = experiment: Antialzheimer activity in human oligo-merized amyloid beta (1 to 42 residues)-induced cognitive impairment C57BL/6 mouse model assessed as increase in ratio of brain to body weight at 15 mg/kg,ip qd for 10 days by Morris water maze test; assay type: functional, organism-based; conditions: time 10.0 day
[31] = Acute toxicity in ICR mouse assessed as altered water consumption at 1200 mg/kg, po and measured after 24 hrs; assay type: organism-based; conditions: in vivo
[32] = Acute toxicity in ICR mouse assessed as change in body weight at 1200 mg/kg, po and measured after 4 hrs; assay type: organism-based; conditions: in vivo
[33] = Acute toxicity in ICR mouse assessed as mortality at 1200 mg/kg, po and measured after 4 hrs; assay type: organism-based; conditions: in vivo
[34] = Metal chelating activity assessed as Zn2+-compound complex formation by measuring red shift in presence of ZnCl2 at 40 uM incubated for 30 mins by UV-Visible spectrophotometry
[35] = target: T1, Amyloid-beta precursor protein; experiment: Inhibition of Cu2+ induced amyloid beta (1 to 42 ) (unknown origin) aggregation incubated for 24 hr by Thioflavin T based fluorometric assay
Mus musculus [36] = experiment: Antialzheimer activity in scopolamine-induced cognitive impairment ICR mouse model assessed as distance to reach target at 15 mg/kg,ip qd for 10 days followed by scopolmaine-stimulation measured on day 16 by Morris water maze test (Rvb= 16.93 +/- 5.88 meter); assay type: functional; conditions: time 10 day
[37] = Acute toxicity in ICR mouse assessed as change in body weight at 1200 mg/kg, po and measured after 24 hrs; assay type: organism-based; conditions: in vivo
[38] = target: T1, Amyloid-beta precursor protein; experiment: Inhibition of Cu2+ induced amyloid beta (1 to 42 ) (unknown origin) aggregation assessed as reduction in fibrils incubated for 24 hr by TEM analysis
[39] = Metal chelating activity assessed as Cu2+-compound complex formation by measuring red shift in presence of CuSO4 at 40 uM incubated for 30 mins by UV-Visible spectrophotometry
[40] = Acute toxicity in ICR mouse assessed as mortality at 1200 mg/kg, po and measured after 24 hrs; assay type: organism-based; conditions: in vivo
Mus musculus [41] = experiment: Antialzheimer activity in human oligo-merized amyloid beta (1 to 42 residues)-induced cognitive impairment C57BL/6 mouse model assessed as increase in percentage of time spent in the target quadrant at 15 mg/kg,ip qd for 10 days by Morris water maze test relative to control; assay type: functional, organism-based; conditions: time 10.0 day
SH-SY5Y [42] = experiment: Antialzheimer activity in human SH-SY5Y cells assessed as inhibition of GA-induced tau hyperphosphorylation at Ser199 residue at 0.1 to 3 uM incubated for 24 hrs by ELISA; assay type: functional, cell-based; conditions: dose 0.1-3 µM
[43] = target: T1, Amyloid-beta precursor protein; experiment: Inhibition of AChE induced HFIP-pretreated amyloid beta (1 to 42 ) (unknown origin) aggregation incubated for 24 hr by Thioflavin T based fluorometric assay
[44] = Metal chelating activity assessed as Al3+-compound complex formation by measuring red shift in presence of AlCl3 at 40 uM incubated for 30 mins by UV-Visible spectrophotometry

With Cl.Oc1cccc2ccc(/C=C/C3=CCN(Cc4ccccc4C(F)(F)F)CC3)nc12 as the compound, how does the Activity [1] read?
The Activity was “Active”.

And the Activity [2]?
Its Activity is “Non-Toxic”.

What about the pIC50 (SH-SY5Y [3]) of the same compound?
Its pIC50 is 3.86.

What about the Activity (SH-SY5Y [4]) of the same compound?
Its Activity is “Non-Toxic”.

And the pIC50 (SH-SY5Y [5])?
Its pIC50 is 3.67.

And the Activity (SH-SY5Y [6])?
Its Activity is “Active”.

What about the pIC50 (Acetylcholinesterase [7]) of the same compound?
The pIC50 was 3.79.

What about the Activity [8] of the same compound?
The Activity was “Non-Toxic”.

What about the Activity [9] of the same compound?
The Activity was “Non-Toxic”.

And the pIC50 (Acetylcholinesterase [10])?
The pIC50 was 6.96.

And the pIC50 (SH-SY5Y [11])?
The pIC50 was 4.09.

And the Activity [12]?
Its Activity is “Active”.

And the Activity (SH-SY5Y [13])?
Its Activity is “Active”.

And the Activity [14]?
The Activity was “Non-Toxic”.

And the Activity [15]?
Its Activity is “Non-Toxic”.

What about the Time (Mus musculus [16]) of the same compound?
Its Time is 35.22 s.

What about the inhibition [17] of the same compound?
Its inhibition is “inactive”.

And the Activity [18]?
The Activity was “Non-Toxic”.

What about the Activity [19] of the same compound?
Its Activity is “Non-Toxic”.

And the Activity [20]?
Its Activity is “Non-Toxic”.

And the Activity (Mus musculus [21])?
Its Activity is “Active”.

What about the Activity (Mus musculus [22]) of the same compound?
The Activity was “Active”.

And the pIC50 (SH-SY5Y [23])?
Its pIC50 is 3.36.

What about the Activity (SH-SY5Y [24]) of the same compound?
The Activity was “Active”.

And the Activity (Mus musculus [25])?
The Activity was “Active”.

What about the Activity [26] of the same compound?
Its Activity is “Non-Toxic”.

What about the Activity [27] of the same compound?
The Activity was “Non-Toxic”.

What about the inhibition [28] of the same compound?
Its inhibition is “Dose-Dependent Effect”.

And the Activity (Mus musculus [29])?
The Activity was “Active”.

And the Activity (Mus musculus [30])?
Its Activity is “Active”.

What about the Activity [31] of the same compound?
Its Activity is “Non-Toxic”.

And the Activity [32]?
Its Activity is “Non-Toxic”.

What about the Activity [33] of the same compound?
Its Activity is “Non-Toxic”.

What about the Activity [34] of the same compound?
Its Activity is “Active”.

And the inhibition [35]?
The inhibition was “Active”.

What about the Activity (Mus musculus [36]) of the same compound?
Its Activity is 8.05 m.

What about the Activity [37] of the same compound?
The Activity was “Non-Toxic”.

And the inhibition [38]?
Its inhibition is “Active”.

What about the Activity [39] of the same compound?
Its Activity is “Active”.

And the Activity [40]?
The Activity was “Non-Toxic”.

And the Activity (Mus musculus [41])?
Its Activity is “Active”.

What about the Activity (SH-SY5Y [42]) of the same compound?
The Activity was “Active”.

And the pIC50 [43]?
Its pIC50 is 2.78.

And the Activity [44]?
Its Activity is “Active”.
